Patent publication EP4335840A1, “NEW CONTRAST AGENTS FOR USE IN DIAGNOSTIC IMAGING” (priority 2022, dated 2024)

Molecular target: T1, OATP1B3 (Homo sapiens, UniProt Q9NPD5)
T1 sequence (Q9NPD5 1-702): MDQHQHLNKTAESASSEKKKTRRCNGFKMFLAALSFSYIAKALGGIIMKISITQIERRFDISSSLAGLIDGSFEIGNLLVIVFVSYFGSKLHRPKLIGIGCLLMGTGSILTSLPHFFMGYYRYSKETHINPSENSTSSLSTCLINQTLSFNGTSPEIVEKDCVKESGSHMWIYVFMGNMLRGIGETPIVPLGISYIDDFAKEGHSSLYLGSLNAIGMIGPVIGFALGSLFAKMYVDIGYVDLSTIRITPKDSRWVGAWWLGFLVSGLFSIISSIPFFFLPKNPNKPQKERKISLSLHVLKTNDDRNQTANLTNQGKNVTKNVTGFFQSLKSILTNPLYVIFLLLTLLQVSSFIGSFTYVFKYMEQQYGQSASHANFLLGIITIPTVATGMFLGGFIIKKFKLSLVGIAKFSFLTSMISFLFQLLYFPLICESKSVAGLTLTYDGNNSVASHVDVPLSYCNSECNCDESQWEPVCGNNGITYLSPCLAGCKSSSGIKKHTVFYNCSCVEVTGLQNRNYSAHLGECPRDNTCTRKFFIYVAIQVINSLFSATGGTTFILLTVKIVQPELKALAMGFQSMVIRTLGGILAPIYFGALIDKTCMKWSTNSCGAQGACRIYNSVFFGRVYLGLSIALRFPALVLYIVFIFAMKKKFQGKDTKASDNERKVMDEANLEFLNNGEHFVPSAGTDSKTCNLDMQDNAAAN
Experiment: Uptake into stable transfected OATP1B3 HEK 293 cells
Type: cell-based
Details: 100 µM, 40 min, relative to RC1 (Gd-EOB-DTPA)
Experimental: Human transfected OATP1B3 human embryonic kidney 293 cells (OATP1B3 HEK 293, SLCO1B3, Entrez Gene ID: 28234) were used (Leonhardt M et al. Drug Metab Dispos. 2010 Jul;38(7):1024-8). The following culture medium was used: 500 mL DMEM (Dulbecco's Modified Eagle Medium - high Glucose, D6429), 50 mL FCS (fetal bovine serum, Fa. Sigma, F7524), 5.8 mL G418 (Geneticin, Fa. Gibco 10131-027) and 5 mL Pen-Strep. (Penicillin-Streptomycin, Fa. Gibco, Ref 15140-122). Cryopreserved cells were shortly thawed in water bath and diluted in 10 mL warm culture medium (37°C). After medium change the cells were grown for 3d in a 25 cm^2 cell culture flask. After 3 to 5d the cells were transferred into 75 cm^2 flasks. For the splitting of cells these were incubated with 1.5 mL trypsin (Trypsin-EDTA (1x) 0,05%, Ref 25300-054 100ml, Fa. Gibco) for 3-5 min in the incubator (37°C, 5% CO2 and […]). After centrifugation and washing with medium the cells were counted (50 µL cell suspension and 50 µL trypan blue (Trypan Blue Solution, 93595-50ml, Fa. Fluka). Cells were cultured (1×10^5 cells/well) in poly-D-lysine coated 24-well plates (Fa. Corning, Ref: 354414) in 1.5 mL medium per well. After 48 hours in the incubator the medium was changed and 1.5 mL/well sodium butyrate containing medium were added (40 mL culture medium plus 400 µL Na-Butyrate, Fa. Sigma Aldrich B5887-5G, 250 mg in 2.27 mL MilliQ water). After 24 hours in the incubator the medium was vacuumed off and 1.5 mL transport buffer was added and incubated for 10 min. The transport buffer contains the following ingredients: 500 mL HBSS (Hank's balanced salt solution, Hyclone, SH30268.01), 5 mL HEPES buffer (4-(2-hydroxyethyl)-1-piperazine-ethanesulfonic acid, Gibco 15630-056) and 3.9 mL glucose (Sigma, G8270-100, 90 g/200mL MilliQ water). All test items were prepared in transport buffer at a final concentration of 100 µM from stock solutions (180 to 500 mM concentration). The OATP1B3 HEK 293 cells were incubated with test solutions (test item in transport buffer 500 µL) for 40min on a thermoshaker without shaking (PHMP, Fa. Grant Bio). Triplicates were performed for each test item. After incubation the cells were washed with 2 mL of cold PBS (+) buffer (Dulbeccos PBS +, Fa. Gibco). […] As a reference standard Gd-EOB-DTPA (gadoxetate) is used in the same well plate. The OATP1B3 HEK 293 uptake of the test compound is calculated relative to gadoxetate (resulting in the unit % of RC1).

Substance | Uptake into OATP1B3-HEK 293 cells
Gadolinium-2,2',2"-[10-(carboxymethyl)-2-(4-ethoxybenzyl)-1,4,7,10-tetraazacyclododecane-1,4,7-triyl]triacetate [Example 8] | 94 % of RC1
Gadolinium-2,2',2"-[10-(carboxymethyl)-2-(4-ethoxybenzyl)-1,4,7,10-tetraazacyclododecane-1,4,7-triyl]triacetate [Example 9] | 13 % of RC1
Gadolinium-2,2',2"-[(2S)-2-(4-butoxybenzyl)-10-(carboxymethyl)-1,4,7,10-tetraaza cyclododecane-1,4,7-triyl]triacetate [Example 12] | 66 % of RC1
Gadolinium-2,2',2"-[(2S)-2-(4-butoxybenzyl)-10-(carboxymethyl)-1,4,7,10-tetraaza cyclododecane-1,4,7-triyl]triacetate [Example 13] | 383 % of RC1
Gadolinium-2,2',2"-[(2S)-10-(carboxymethyl)-2-(4-ethoxybenzyl)-1,4,7,10-tetraazacyclododecane-1,4,7-triyl]triacetate [Example 10] | 80 % of RC1
Gadolinium-2,2',2"-[(2S)-10-(carboxymethyl)-2-(4-ethoxybenzyl)-1,4,7,10-tetraazacyclododecane-1,4,7-triyl]triacetate [Example 11] | 32 % of RC1
